Tests used:
HaCat cells = experiment: m6A methylation level of human HaCat keratinocytes, EpiQuik m6A RNA methylation quantification kit (Example 20); type: cell-based; details: for m6A fold change relative to control group 1: HaCat cells, 24 hours
Procedure: HaCat cells were cultured in a DMEM culture medium containing 10% fetal bovine serum, 100 U/mL penicillin, and 100 μg/mL streptomycin. Culture dishes were placed in an incubator containing 5% CO2 for culture at 37° C. for 24 hours. An equal volume of DMSO was added in control group 1, 50 nM sorafenib, capecitabine, docetaxel, and osimertinib were respectively added in control groups A, B, C, and D, and 400 nM test compounds or nicotinamide were respectively added in sample groups A1-17, B1-17, C1-17, and D1-17 after the addition of 50 nM corresponding compounds. The cells were continuously cultured for 24 hours, washed with PBS, and then collected by high-speed centrifugation. Total RNA was extracted using a Trizol reagent (Sigma Aldrich), and RNA m6A methylation of a sample was quantitatively detected using an EpiQuik m6A RNA methylation quantification kit. The concentrations of positive control samples for a standard curve were 0.01 ng/μl, 0.02 ng/μl, 0.05 ng/μl, 0.1 ng/μl, 0.2 ng/μl, and 0.5 ng/μl. The absorbance at 450 nm was read using a microplate reader (Tecan GENios). A quantitative calculation formula for m6A is as follows:
m6A (ng)=(absorbance of sample well−absorbance of background well)/slope of standard curve m6A (%)=m6A (ng)/RNA amount of sample (ng)*100%.

paw plantar skin of rats = experiment: Rat models with hand-foot skin reaction, topical ointment (Example 22); type: in vivo, SD rats; details: for Incidence rate: 30 days
Procedure: After adaptive feeding for one week, SD rats (with a body weight of approximately 200 g) were randomly divided into groups according to the body weight, with 12 rats in each group. Modeling drugs (including sorafenib, erlotinib, afatinib, and osimertinib) were respectively dissolved in a solution containing 5% of DMSO, 45% of PEG400, and 50% of H2O, and the modeling drugs were diluted to required concentrations and then administered once daily by gavage at doses shown in Table 3. After administration by gavage for 1 hour, 0.05 g of ointments containing different mass proportions of test compounds were evenly applied to left paws of the rats, a blank matrix ointment was applied to right paws of the rats to serve as a self-control, and no ointment was applied to the rats in a blank control group. After drug application, four limbs were continuously immobilized for 2 hours, then wiped with clean water to remove the residual drugs, removed from immobilization, and restored to free movement. The modeling drugs, the blank matrix ointment, and the ointments containing the test compounds were all administered once daily. After continuous administration for 30 days, the rats were euthanized, and paw plantar skin tissues were collected, fixed in 10% neutral formalin, […]. The ointments for the test compounds were prepared by mixing the compounds, white beeswax, white petrolatum, and light liquid paraffin in specific ratios (weight ratios of 3 ointments were respectively 1:18:58:23, 3:18:57:22, and 10:20:40:30). The blank matrix ointment was prepared by mixing white beeswax, white petrolatum, and light liquid paraffin in a specific ratio (weight ratio of 18:60:22).
Tissue staining: After dewaxing and rehydration, the paw plantar skin tissue sections of the above rats were stained in a hematoxylin solution for several minutes, cleaned, and placed in 1% acid alcohol for soaking until the sections faded to light blue-red. After cleaning with running water for 5 minutes, the sections were stained with eosin for 2-3 minutes, cleaned to remove excess dyes, dehydrated, then permeabilized by adding xylene for several minutes, and sealed and fixed with a neutral resin. The stratum corneum was observed under an optical microscope, and the thickness of the epidermal stratum corneum was measured using Dmetrix software.
Immunohistochemical staining: After dewaxing and hydration, the paw plantar skin tissue sections of the above rats were incubated with 3% H2O2 at room temperature for 30 minutes and blocked with 10% goat serum for 30 minutes after antigen retrieval. A KRT1 antibody (Abcam, ab93652) and a Loricrin antibody (Abcam, ab183646) were added dropwise, the sections were incubated overnight at 4° C., and an HRP secondary antibody (ZSGB-BIO, PV-6001) and a DAB kit (ZSG-BIO, ZLI9017) were added for color development. The sections were re-stained with hematoxylin, cleaned, and sealed and fixed with a neutral resin, and the expression amounts of KRT1 and Loricrin were observed under an optical microscope.
An incidence rate calculation method involves a proportion of animals in each group meeting the above criteria for determining successful modeling, that is, incidence rate=(number of successfully modeled rats/total number of rats in the group)*100%. […]

[1] = 50 nM capecitabine + 400 nM test compound
[2] = 50 nM docetaxel + 400 nM test compound
[3] = 50 nM osimertinib + 400 nM test compound
[4] = 50 nM sorafenib + 400 nM test compound
[5] = paw plantar skin of modeled rats, topical ointment

## NC(=O)C1c2[nH]c3ccc(Cl)cc3c2C2CCC1C2 [Compound 5a, (S)-2-chloro-5,6,7,8,9,10-hexahydro-7,10-methanocyclohepta[b]indole-6-carboxamide]
HaCat cells; 400 nM compound after 50 nM drug
  abnormal increase in the RNA m6A level of human keratinocytes caused by chemotherapeutic drugs and multikinase inhibitors: effectively inhibit
HaCat cells; [1]
  m6A fold change relative to control group 1: 1.2
HaCat cells; [2]
  m6A fold change relative to control group 1: 1.0
HaCat cells; [3]
  m6A fold change relative to control group 1: 1.2
HaCat cells; [4]
  m6A fold change relative to control group 1: 1.0
Paw plantar skin of rats; afatinib 50 mg/kg, 1% compound ointment on left paw, left paw
  Incidence rate: 1/12 (8%)
Paw plantar skin of rats; afatinib 50 mg/kg, 1% compound ointment on left paw, right paw (blank matrix ointment)
  Incidence rate: 9/12 (75%)
Paw plantar skin of rats; afatinib 50 mg/kg, 3% compound ointment on left paw, left paw
  Incidence rate: 1/12 (8%)
Paw plantar skin of rats; afatinib 50 mg/kg, 3% compound ointment on left paw, right paw (blank matrix ointment)
  Incidence rate: 4/12 (33%)
Paw plantar skin of rats; afatinib 50 mg/kg, 10% compound ointment on left paw, left paw
  Incidence rate: 0/12 (0%)
Paw plantar skin of rats; afatinib 50 mg/kg, 10% compound ointment on left paw, right paw (blank matrix ointment)
  Incidence rate: 1/12 (8%)
Paw plantar skin of rats; compounds at a mass content of 1% in ointment
  incidence rate of hand-foot skin reaction at a drug application site: significantly decrease
Paw plantar skin of rats; compounds at mass contents of 3% and 10% in ointment
  incidence rate of hand-foot skin reaction in all paws of the rats: significantly decrease
Paw plantar skin of rats; erlotinib 70 mg/kg, 1% compound ointment on left paw, left paw
  Incidence rate: 2/12 (17%)
Paw plantar skin of rats; erlotinib 70 mg/kg, 1% compound ointment on left paw, right paw (blank matrix ointment)
  Incidence rate: 9/12 (75%)
Paw plantar skin of rats; erlotinib 70 mg/kg, 3% compound ointment on left paw, left paw
  Incidence rate: 2/12 (17%)
Paw plantar skin of rats; erlotinib 70 mg/kg, 3% compound ointment on left paw, right paw (blank matrix ointment)
  Incidence rate: 5/12 (42%)
Paw plantar skin of rats; erlotinib 70 mg/kg, 10% compound ointment on left paw, left paw
  Incidence rate: 0/12 (0%)
Paw plantar skin of rats; erlotinib 70 mg/kg, 10% compound ointment on left paw, right paw (blank matrix ointment)
  Incidence rate: 0/12 (0%)
Paw plantar skin of rats; osimertinib 60 mg/kg, 1% compound ointment on left paw, left paw
  Incidence rate: 2/12 (17%)
Paw plantar skin of rats; osimertinib 60 mg/kg, 1% compound ointment on left paw, right paw (blank matrix ointment)
  Incidence rate: 9/12 (75%)
Paw plantar skin of rats; osimertinib 60 mg/kg, 3% compound ointment on left paw, left paw
  Incidence rate: 1/12 (8%)
Paw plantar skin of rats; osimertinib 60 mg/kg, 3% compound ointment on left paw, right paw (blank matrix ointment)
  Incidence rate: 4/12 (33%)
Paw plantar skin of rats; osimertinib 60 mg/kg, 10% compound ointment on left paw, left paw
  Incidence rate: 0/12 (0%)
Paw plantar skin of rats; osimertinib 60 mg/kg, 10% compound ointment on left paw, right paw (blank matrix ointment)
  Incidence rate: 1/12 (8%)
Paw plantar skin of rats; [5]
  formation of blisters, inflammatory cell infiltration in the dermis and skin congestion (pathological scoring): effectively improve
  formation of blisters, inflammatory cell infiltration in the dermis and skin congestion (tissue staining): effectively improve
Paw plantar skin of rats; sorafenib 100 mg/kg, 1% compound ointment on left paw, left paw
  Incidence rate: 1/12 (8%)
Paw plantar skin of rats; sorafenib 100 mg/kg, 1% compound ointment on left paw, right paw (blank matrix ointment)
  Incidence rate: 10/12 (83%)
Paw plantar skin of rats; sorafenib 100 mg/kg, 3% compound ointment on left paw, left paw
  Incidence rate: 1/12 (8%)
Paw plantar skin of rats; sorafenib 100 mg/kg, 3% compound ointment on left paw, right paw (blank matrix ointment)
  Incidence rate: 5/12 (42%)
Paw plantar skin of rats; sorafenib 100 mg/kg, 10% compound ointment on left paw, left paw
  Incidence rate: 0/12 (0%)
Paw plantar skin of rats; sorafenib 100 mg/kg, 10% compound ointment on left paw, right paw (blank matrix ointment)
  Incidence rate: 2/12 (17%
Paw plantar skin of rats; summary of Examples 21 and 22
  differentiation of keratinocytes both in vitro and in vivo: effectively inhibit
Paw plantar skin of rats; topical ointment, modeled rats
  stratum corneum thickness of the paw plantar skin of the modeled rats: effectively decrease

## NC(=O)c1cccnc1 [Nicotinamide, nicotinamide]
HaCat cells; [1]
  m6A fold change relative to control group 1: 4.5
HaCat cells; [2]
  m6A fold change relative to control group 1: 5.4
HaCat cells; [3]
  m6A fold change relative to control group 1: 5.0
HaCat cells; [4]
  m6A fold change relative to control group 1: 4.7
